Tested on: MV-4-11 cells
Assay: Gene expression microarray analysis (Affymetrix PrimeView) and GSEA
Assay type: cell-based, human
Set-up: RFU PODN (11730768_x_at) / Fold change /veh PODN (11730768_x_at) / RFU LINC00158 (11744669_a_at) / Fold change /veh LINC00158 (11744669_a_at) / RFU DUSP10 (11751237_a_at) / Fold change /veh DUSP10 (11751237_a_at) / RFU ID3 (11757404_x_at) / Fold change /veh ID3 (11757404_x_at) / RFU PLEKHG5 (11737974_s_at) / Fold change /veh PLEKHG5 (11737974_s_at) / RFU LRRC4B (11730491_at) / Fold change /veh LRRC4B (11730491_at) / RFU GIMAP4 (11747438_a_at) / Fold change /veh GIMAP4 (11747438_a_at) / RFU KRT8 (11758183_x_at) / Fold change /veh KRT8 (11758183_x_at) / RFU CNN1 (11734310_a_at) / Fold change /veh CNN1 (11734310_a_at) / RFU VPS37D (11726825_at) / Fold change /veh VPS37D (11726825_at) / RFU C10orf10 (11716522_x_at) / Fold change /veh C10orf10 (11716522_x_at) / RFU KIR2DL2 /// KIR2DL4 /// KIR2DL5A /// KIR2DL5B /// KIR2DS1 /// KIR2DS2 /// KIR2DS3 /// KIR2DS4 /// KIR3DL3 /// KIR3DL3 /// KIR3DS1 (11738374_at) / Fold change /veh KIR2DL2 /// KIR2DL4 /// KIR2DL5A /// KIR2DL5B /// KIR2DS1 /// KIR2DS2 /// KIR2DS3 /// KIR2DS4 /// KIR3DL3 /// KIR3DL3 /// KIR3DS1 (11738374_at) / RFU C1QL1 (11718748_at) / Fold change /veh C1QL1 (11718748_at) / RFU TMPRSS4 (11747572_a_at) / Fold change /veh TMPRSS4 (11747572_a_at) / RFU HAMP (11756126_x_at) / Fold change /veh HAMP (11756126_x_at) / RFU RNFT2 (11725882_a_at) / Fold change /veh RNFT2 (11725882_a_at) / RFU NR4A2 (11747474_a_at) / Fold change /veh NR4A2 (11747474_a_at) / RFU ABCC12 (11746883_a_at) / Fold change /veh ABCC12 (11746883_a_at) / RFU TMEM136 (11760407_x_at) / Fold change /veh TMEM136 (11760407_x_at) / RFU CLDN22 /// WWC2 (11732394_at) / Fold change /veh CLDN22 /// WWC2 (11732394_at) / RFU HLA-DPB1 (11760878_x_at) / Fold change /veh HLA-DPB1 (11760878_x_at) / RFU SPINT1 (11716480_a_at) / Fold change /veh SPINT1 (11716480_a_at) / RFU GAP43 (11754022_s_at) / Fold change /veh GAP43 (11754022_s_at) / RFU A4GNT (11735810_at) / Fold change /veh A4GNT (11735810_at) / RFU PRB3 (11715151_x_at) / Fold change /veh PRB3 (11715151_x_at) / RFU TUBB4B (11761932_at) / Fold change /veh TUBB4B (11761932_at) / RFU CAPN14 (11732068_a_at) / Fold change /veh CAPN14 (11732068_a_at) / RFU TMCC2 (11721928_a_at) / Fold change /veh TMCC2 (11721928_a_at) / RFU IRGQ (11745062_a_at) / Fold change /veh IRGQ (11745062_a_at) / RFU FAM174B (11720279_a_at) / Fold change /veh FAM174B (11720279_a_at) / RFU TMPRSS4 (11748680_a_at) / Fold change /veh TMPRSS4 (11748680_a_at) / RFU FAM212B (11763350_a_at) / Fold change /veh FAM212B (11763350_a_at) / RFU PLEKHG5 (11743358_a_at) / Fold change /veh PLEKHG5 (11743358_a_at) / RFU ZSCAN30 (11745921_a_at) / Fold change /veh ZSCAN30 (11745921_a_at) / RFU CMKLR1 (11741424_a_at) / Fold change /veh CMKLR1 (11741424_a_at) / RFU LOC101060620 /// MAPK8IP1 (11723275_at) / Fold change /veh LOC101060620 /// MAPK8IP1 (11723275_at) / RFU SPTSSB (11747773_x_at) / Fold change /veh SPTSSB (11747773_x_at) / RFU PRSS12 (11739890_at) / Fold change /veh PRSS12 (11739890_at) / RFU BIN1 (11741810_x_at) / Fold change /veh BIN1 (11741810_x_at) / RFU WNT11 (11732464_a_at) / Fold change /veh WNT11 (11732464_a_at) / RFU C10orf10 (11716521_a_at) / Fold change /veh C10orf10 (11716521_a_at) / RFU C5orf56 (11738089_at) / Fold change /veh C5orf56 (11738089_at) / RFU CYB561 (11721691_x_at) / Fold change /veh CYB561 (11721691_x_at) / RFU ANKRD19P (11752326_a_at) / Fold change /veh ANKRD19P (11752326_a_at) / RFU OR2T12 /// OR2T33 /// OR2T8 (11738714_s_at) / Fold change /veh OR2T12 /// OR2T33 /// OR2T8 (11738714_s_at) / RFU VCAN (11748164_a_at) / Fold change /veh VCAN (11748164_a_at) / RFU JSRP1 (11732532_at) / Fold change /veh JSRP1 (11732532_at) / RFU KRTAP10-11 (11738290_x_at) / Fold change /veh KRTAP10-11 (11738290_x_at) / RFU MYO3A (11730013_a_at) / Fold change /veh MYO3A (11730013_a_at) / RFU EBF3 (11725865_a_at) / Fold change /veh EBF3 (11725865_a_at) / RFU CAMK2N1 (11719241_x_at) / Fold change /veh CAMK2N1 (11719241_x_at) / RFU C5orf56 (11738088_a_at) / Fold change /veh C5orf56 (11738088_a_at) / RFU OLFML3 (11715873_a_at) / Fold change /veh OLFML3 (11715873_a_at) / RFU LOC100653217 /// NTM (11731650_a_at) / Fold change /veh LOC100653217 /// NTM (11731650_a_at) / RFU MAPK11 (11762145_a_at) / Fold change /veh MAPK11 (11762145_a_at) / RFU FIZ1 (11724087_x_at) / Fold change /veh FIZ1 (11724087_x_at) / RFU OASL (11726364_x_at) / Fold change /veh OASL (11726364_x_at) / RFU SOX15 (11748057_x_at) / Fold change /veh SOX15 (11748057_x_at) / RFU CD79A (11719716_a_at) / Fold change /veh CD79A (11719716_a_at) / RFU HIST1H1D (11736915_at) / Fold change /veh HIST1H1D (11736915_at) / RFU CASKIN2 (11723855_a_at) / Fold change /veh CASKIN2 (11723855_a_at) / RFU LOC730098 (11760151_x_at) / Fold change /veh LOC730098 (11760151_x_at) / RFU OR4N2 (11742367_at) / Fold change /veh OR4N2 (11742367_at) / RFU PRRT2 (11749266_a_at) / Fold change /veh PRRT2 (11749266_a_at) / RFU SNX32 (11753110_a_at) / Fold change /veh SNX32 (11753110_a_at) / RFU CDHR5 (11726645_a_at) / Fold change /veh CDHR5 (11726645_a_at) / RFU RCAN1 (11760418_a_at) / Fold change /veh RCAN1 (11760418_a_at) / RFU FAM167A (11723789_a_at) / Fold change /veh FAM167A (11723789_a_at) / RFU FAM26E (11764081_at) / Fold change /veh FAM26E (11764081_at) / RFU ISYNA1 (11749810_s_at) / Fold change /veh ISYNA1 (11749810_s_at) / RFU ACY1 (11761880_at) / Fold change /veh ACY1 (11761880_at) / RFU 11764098_at / Fold change /veh 11764098_at / RFU SAMD14 (11745864_x_at) / Fold change /veh SAMD14 (11745864_x_at) / RFU NPB (11741838_a_at) / Fold change /veh NPB (11741838_a_at) / RFU TMPRSS6 (11731388_a_at) / Fold change /veh TMPRSS6 (11731388_a_at) / RFU KRTAP10-2 (11738614_at) / Fold change /veh KRTAP10-2 (11738614_at) / RFU ARHGAP8 /// PRR5-ARHGAP8 (11727945_x_at) / Fold change /veh ARHGAP8 /// PRR5-ARHGAP8 (11727945_x_at) / RFU KRTAP5-7 /// NADSYN1 (11734609_at) / Fold change /veh KRTAP5-7 /// NADSYN1 (11734609_at) / RFU RASL12 (11751679_a_at) / Fold change /veh RASL12 (11751679_a_at) / RFU CDKN2B (11736163_a_at) / Fold change /veh CDKN2B (11736163_a_at) / RFU PRF1 (11729649_at) / Fold change /veh PRF1 (11729649_at) / RFU, ZNF638 /// ZNF638-IT1 / Fold change vs veh, ZNF638 /// ZNF638-IT1 / RFU, PANK3 / Fold change vs veh, PANK3 / RFU, SH3YL1 / Fold change vs veh, SH3YL1 / RFU, ZEB2 / Fold change vs veh, ZEB2 / RFU, NRIP1 / Fold change vs veh, NRIP1 / RFU, PTTG1IP / Fold change vs veh, PTTG1IP / RFU, CAPN2 / Fold change vs veh, CAPN2 / RFU, MED14 / Fold change vs veh, MED14 / RFU, SNORA58 / Fold change vs veh, SNORA58 / RFU, C1orf63 / Fold change vs veh, C1orf63 / RFU, LRRFIP1 / Fold change vs veh, LRRFIP1 / RFU, NDUFAF7 / Fold change vs veh, NDUFAF7 / RFU, SLC12A2 / Fold change vs veh, SLC12A2 / RFU, IBTK / Fold change vs veh, IBTK / RFU, ESF1 / Fold change vs veh, ESF1 / Fold change vs veh, TMEM50B / RFU, TAOK1 / Fold change vs veh, TAOK1 / RFU, ACBD3 / Fold change vs veh, ACBD3 / RFU, TMA16 / Fold change vs veh, TMA16 / RFU, RWDD3 / Fold change vs veh, RWDD3 / RFU, BCAT1 / Fold change vs veh, BCAT1 / RFU, EDEM3 / Fold change vs veh, EDEM3 / RFU, TMEM33 / Fold change vs veh, TMEM33 / RFU, WDR75 / Fold change vs veh, WDR75 / RFU, AHCTF1 / Fold change vs veh, AHCTF1 / RFU, TFRC / Fold change vs veh, TFRC / RFU, ZDHHC17 / Fold change vs veh, ZDHHC17 / RFU, NOM1 / Fold change vs veh, NOM1 / RFU, ARL8B / Fold change vs veh, ARL8B / RFU, ZBTB11 / Fold change vs veh, ZBTB11 / RFU, TAMM41 / Fold change vs veh, TAMM41 / RFU, KIAA1704 /// LOC100996395 / Fold change vs veh, KIAA1704 /// LOC100996395 / RFU, ING1 / Fold change vs veh, ING1 / RFU, TRMT61B / Fold change vs veh, TRMT61B / RFU, FUBP3 / Fold change vs veh, FUBP3 / RFU, TP53 / Fold change vs veh, TP53 / RFU, TNKS2 / Fold change vs veh, TNKS2 / RFU, ZFP14 / Fold change vs veh, ZFP14 / RFU, ACTR2 / Fold change vs veh, ACTR2 / RFU, PPP3R1 / Fold change vs veh, PPP3R1 / RFU, PIK3R1 / Fold change vs veh, PIK3R1 / RFU, HNRNPA1 / Fold change vs veh, HNRNPA1 / RFU, RNF170 / Fold change vs veh, RNF170 / RFU, ZNF28 / Fold change vs veh, ZNF28 / RFU, RNGTT / Fold change vs veh, RNGTT / RFU, OGT / Fold change vs veh, OGT / RFU, BRD1 / Fold change vs veh, BRD1 / RFU, MARS / Fold change vs veh, MARS / RFU, ZNF655 / Fold change vs veh, ZNF655 / RFU, FAHD1 / Fold change vs veh, FAHD1 / RFU, BDP1 / Fold change vs veh, BDP1 / RFU, LRRCC1 / Fold change vs veh, LRRCC1 / RFU, ARID1A / Fold change vs veh, ARID1A / RFU, ZNF146 / Fold change vs veh, ZNF146 / RFU, ZNF330 / Fold change vs veh, ZNF330 / RFU, GPN3 / Fold change vs veh, GPN3 / RFU, C9orf123 / Fold change vs veh, C9orf123 / RFU, N4BP2L2 / Fold change vs veh, N4BP2L2 / RFU, ARFIP1 / Fold change vs veh, ARFIP1 / RFU, FAM179B / Fold change vs veh, FAM179B / RFU, BCL10 / Fold change vs veh, BCL10 / RFU, UHRF1BP1L / Fold change vs veh, UHRF1BP1L / RFU, BET1 / Fold change vs veh, BET1 / RFU, CNOT2 / Fold change vs veh, CNOT2 / RFU, ZNF268 / Fold change vs veh, ZNF268 / Fold change vs veh, ZNF507 / RFU, DGCR2 / Fold change vs veh, DGCR2 / RFU, WDSUB1 / Fold change vs veh, WDSUB1 / Fold change vs veh, HSP90B1 /// MIR3652 / RFU, ADSS / Fold change vs veh, ADSS / RFU, GK / Fold change vs veh, GK / RFU, ZNF148 / Fold change vs veh, ZNF148 / RFU, TAF9 / Fold change vs veh, TAF9 / RFU, SLC1A5 / Fold change vs veh, SLC1A5 / RFU, SLMO2 / Fold change vs veh, SLMO2 / RFU, ABCC4 / Fold change vs veh, ABCC4 / RFU, LOC101060439 /// RAP1B / Fold change vs veh, LOC101060439 /// RAP1B / RFU, RFX7 / Fold change vs veh, RFX7 / RFU, GTPBP10 / Fold change vs veh, GTPBP10 / RFU, CNEP1R1 / Fold change vs veh, CNEP1R1 / RFU, BIVM-ERCC5 /// ERCC5 / Fold change vs veh, BIVM-ERCC5 /// ERCC5 / RFU, ILF3 / Fold change vs veh, ILF3 / RFU 11762660_at / Fold change /veh 11762660_at / RFU VCAN (11757783_s_at) / Fold change /veh VCAN (11757783_s_at) / RFU DDX43 (11728927_at) / Fold change /veh DDX43 (11728927_at) / RFU KRT8 (11758188_x_at) / Fold change /veh KRT8 (11758188_x_at) / RFU NKD1 (11759106_at) / Fold change /veh NKD1 (11759106_at) / RFU SRD5A1 (11742802_a_at) / Fold change /veh SRD5A1 (11742802_a_at) / RFU TPSAB1 /// TPSB2 (11721975_s_at) / Fold change /veh TPSAB1 /// TPSB2 (11721975_s_at) / RFU GSTM3 (11746129_a_at) / Fold change /veh GSTM3 (11746129_a_at) / RFU IL23R (11737362_x_at) / Fold change /veh IL23R (11737362_x_at) / RFU TMEM51 (11727254_a_at) / Fold change /veh TMEM51 (11727254_a_at) / RFU PIWIL2 (11732686_x_at) / Fold change /veh PIWIL2 (11732686_x_at) / RFU ORM1 (11744905_x_at) / Fold change /veh ORM1 (11744905_x_at) / RFU CCDC152 (11743942_at) / Fold change /veh CCDC152 (11743942_at) / RFU ECM1 (11717891_a_at) / Fold change /veh ECM1 (11717891_a_at) / RFU IL23R (11748794_a_at) / Fold change /veh IL23R (11748794_a_at) / RFU TNFAIP8L3 (11732012_x_at) / Fold change /veh TNFAIP8L3 (11732012_x_at) / RFU MBOAT4 (11741988_at) / Fold change /veh MBOAT4 (11741988_at) / RFU 11764193_at / Fold change /veh 11764193_at / RFU TMEM53 (11763286_at) / Fold change /veh TMEM53 (11763286_at) / RFU MAGEB2 (11727129_at) / Fold change /veh MAGEB2 (11727129_at) / RFU TMEM200A (11744735_a_at) / Fold change /veh TMEM200A (11744735_a_at) / RFU CCDC152 (11751479_a_at) / Fold change /veh CCDC152 (11751479_a_at) / RFU FAM211A (11726209_a_at) / Fold change /veh FAM211A (11726209_a_at) / RFU RGS16 (11746705_a_at) / Fold change /veh RGS16 (11746705_a_at) / RFU VCAN (11755009_s_at) / Fold change /veh VCAN (11755009_s_at) / RFU RHOB (11743442_s_at) / Fold change /veh RHOB (11743442_s_at) / RFU RGS16 (11720943_a_at) / Fold change /veh RGS16 (11720943_a_at) / RFU RGS16 (11720944_at) / Fold change /veh RGS16 (11720944_at) / RFU, VPS4B / Fold change vs veh, VPS4B / RFU, CREB1 / Fold change vs veh, CREB1 / RFU, DNAJC13 / Fold change vs veh, DNAJC13 / RFU, GNAQ / Fold change vs veh, GNAQ / RFU, CDK5R1 / Fold change vs veh, CDK5R1 / RFU, ZRANB3 / Fold change vs veh, ZRANB3 / RFU, CUL4A / Fold change vs veh, CUL4A / RFU, CCNY / Fold change vs veh, CCNY / RFU, UFL1 / Fold change vs veh, UFL1 / RFU, COG3 / Fold change vs veh, COG3 / RFU, DIAPH2 / Fold change vs veh, DIAPH2 / RFU, SKA2 / Fold change vs veh, SKA2 / RFU, AFF3 / Fold change vs veh, AFF3 / RFU, LMF1 / Fold change vs veh, LMF1 / RFU, IPO11 / Fold change vs veh, IPO11 / RFU, DFFB / Fold change vs veh, DFFB / RFU, FOXP1 / Fold change vs veh, FOXP1 / RFU, CARD8 / Fold change vs veh, CARD8 / RFU, STRN3 / Fold change vs veh, STRN3 / RFU, ADK / Fold change vs veh, ADK / RFU, RASSF2 / Fold change vs veh, RASSF2 / RFU, WIPF1 / Fold change vs veh, WIPF1 / RFU, LARP1B / Fold change vs veh, LARP1B / RFU, RASA1 / Fold change vs veh, RASA1 / RFU, RB1 / Fold change vs veh, RB1 / RFU, PPFIA1 / Fold change vs veh, PPFIA1 / RFU, MAT2A / Fold change vs veh, MAT2A / RFU, CCT5 / Fold change vs veh, CCT5 / RFU, WDR92 / Fold change vs veh, WDR92 / RFU, CUX1 / Fold change vs veh, CUX1 / RFU, TTC7A / Fold change vs veh, TTC7A / RFU, TMEM135 / Fold change vs veh, TMEM135 / RFU, DEPTOR / Fold change vs veh, DEPTOR / RFU, CPM / Fold change vs veh, CPM / RFU, DNAJB6 / Fold change vs veh, DNAJB6 / RFU, CACNA2D3 / Fold change vs veh, CACNA2D3 / RFU, DTX4 / Fold change vs veh, DTX4 / RFU, TFCP2 / Fold change vs veh, TFCP2 / RFU, GMCL1 /// GMCL1P1 / Fold change vs veh, GMCL1 /// GMCL1P1 / RFU, AEBP2 / Fold change vs veh, AEBP2 / RFU, SNHG1 /// SNORD22 /// SNORD25 /// SNORD26 /// SNORD27 /// SNORD28 /// SNORD29 /// SNORD31 / Fold change vs veh, SNHG1 /// SNORD22 /// SNORD25 /// SNORD26 /// SNORD27 /// SNORD28 /// SNORD29 /// SNORD31 / Fold change (Aza/veh), C12orf56 (ProbeSet 11735607_a_at) / Fold change (ACY-1035/veh), C12orf56 (ProbeSet 11735607_a_at) / Fold change (Aza/veh), FGFR1OP (ProbeSet 11751329_s_at) / Fold change (ACY-1035/veh), FGFR1OP (ProbeSet 11751329_s_at) / Fold change (Aza/veh), VPS36 (ProbeSet 11739960_a_at) / Fold change (ACY-1035/veh), VPS36 (ProbeSet 11739960_a_at) / RFU SYPL1 (11715823_x_at) / Fold change /veh SYPL1 (11715823_x_at) / RFU IGFBP7 (11715501_s_at) / Fold change /veh IGFBP7 (11715501_s_at) / RFU REEP3 (11722064_at) / Fold change /veh REEP3 (11722064_at) / RFU IGLL1 (11728026_x_at) / Fold change /veh IGLL1 (11728026_x_at): dose or concentration left out as unconfirmed
Conditions: MV-4-11 cells, 48 hours

For `Nc1ncn([C@@H]2O[C@H](CO)[C@@H](O)[C@H]2O)c(=O)n1` [azacitidine], the “RFU PIWIL2 (11732686_x_at)” value was 15.01 RFU.
